Assay results published in patent publication US20210122763A1, “OGA INHIBITOR COMPOUNDS” (Janssen Pharmaceutica NV, priority 2018, published 2021).

Columns and labels:
[1] = target: T1, recombinant human Meningioma Expressed Antigen 5 (MGEA5), also referred to as O-GlcNAcase (OGA) (Homo sapiens, UniProt O60502); assay: OGA biochemical assay (inhibition of FM-GlcNAc hydrolysis, fluorescence); conditions: for Emax: read-out: Enzymatic Emax (%); for IC50: read-out: Enzymatic hOGA, pIC50 (converted)
T1 construct: Full length OGA enzyme was purchased at OriGene (cat #TP322411); purchased OriGene TP322411
T1 sequence (O60502 1-916): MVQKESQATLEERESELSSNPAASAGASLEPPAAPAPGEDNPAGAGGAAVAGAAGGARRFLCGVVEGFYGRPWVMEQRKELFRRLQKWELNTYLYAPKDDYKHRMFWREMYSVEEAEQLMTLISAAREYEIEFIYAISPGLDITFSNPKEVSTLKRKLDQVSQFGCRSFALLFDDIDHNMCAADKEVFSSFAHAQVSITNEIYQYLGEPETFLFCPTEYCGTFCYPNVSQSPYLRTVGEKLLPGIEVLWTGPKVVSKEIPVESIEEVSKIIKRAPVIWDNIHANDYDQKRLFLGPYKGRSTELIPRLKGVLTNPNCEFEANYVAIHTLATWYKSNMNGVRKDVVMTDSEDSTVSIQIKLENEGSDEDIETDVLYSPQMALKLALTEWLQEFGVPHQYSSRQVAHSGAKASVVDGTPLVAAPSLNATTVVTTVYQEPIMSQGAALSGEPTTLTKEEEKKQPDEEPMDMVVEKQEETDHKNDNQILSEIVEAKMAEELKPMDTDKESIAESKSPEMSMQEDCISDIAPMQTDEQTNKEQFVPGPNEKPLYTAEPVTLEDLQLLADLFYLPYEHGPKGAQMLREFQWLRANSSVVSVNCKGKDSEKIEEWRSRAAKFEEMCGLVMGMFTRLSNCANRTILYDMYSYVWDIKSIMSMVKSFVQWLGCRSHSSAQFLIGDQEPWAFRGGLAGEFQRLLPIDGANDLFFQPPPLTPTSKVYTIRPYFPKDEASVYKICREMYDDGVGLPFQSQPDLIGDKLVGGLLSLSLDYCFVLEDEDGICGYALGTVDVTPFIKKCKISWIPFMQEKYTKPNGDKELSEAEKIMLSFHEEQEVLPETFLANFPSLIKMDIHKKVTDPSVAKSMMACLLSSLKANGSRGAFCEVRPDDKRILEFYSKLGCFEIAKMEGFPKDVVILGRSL
How it was run: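 Full-length OGA at 2 nM was pre-incubated 60 min at room temperature with compound, then FM-GlcNAc at 100 uM final was added in citrate/phosphate buffer pH 7.2 with 0.005% Tween-20. After 6 h at room temperature, carbonate pH 11.0 stopped the reaction. Fluorescence read at 485/538 nm; IC50 and Hill coefficient from curve fit against no-inhibitor and saturating-standard controls.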

OGA = target: T2, OGA (Homo sapiens, UniProt O60502); assay: OGA cellular assay (ICC detection of O-GlcNAcylated proteins in HEK293 cells inducible for P301L mutant human Tau); type: cell-based; conditions: 6 hours incubation; for Emax: HEK293, HEK293 cells inducible for P301L mutant human Tau; for Emax / Cellular Emax (%): maximum = Thiamet G 200 uM; for EC50 / Cellular Emax (%): HEK293 cells inducible for P301L mutant human Tau; for EC50: read-out: Cellular hOGA, pEC50 (converted)
T2 construct: HEK293 cells inducible for P301L mutant human Tau (isoform 2N4R) were established at Janssen; endogenous in cells; host or cells: HEK293 cells inducible for P301L mutant human Tau (2N4R)
T2 sequence (O60502 1-916): T1 sequence (O60502 1-916)
How it was run: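 HEK293 cells with inducible P301L 2N4R Tau, seeded in low-glucose medium, were exposed to compounds for 6 hours (0.2% DMSO), then PFA-fixed and stained with CTD110.6. Imaging intensity at 488 nm measured O-GlcNAcylation, with Hoechst nuclei counts for toxicity. IC50s came from non-linear regression, with Thiamet G at 200 uM as maximum inhibition.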

Emax [1] | IC50 [1] | Emax (OGA) | EC50 (OGA) | Enzymatic Emax (%) [1] | Cellular Emax (%) (OGA) | SMILES
96% | 0.2 µM | 25% | > 1 µM | – | – | CC(c1ccc2c(n1)OCCO2)N1CCC(Oc2ccc(F)cn2)CC1 (stereo not shown) [Compound 115]
96% | 0.501 µM | 25% | > 1 µM | – | – | CC(c1ccc2c(n1)OCCO2)N1CCC(COc2ccc(C(F)(F)F)cn2)CC1 (stereo not shown) [Compound 43]
97% | 0.631 µM | 18% | > 1 µM | – | – | Cc1cc(OC2CCN([C@H](C)c3nc4nc(C)sc4cc3F)CC2)cc(C)n1 (single isomer, unassigned) [Compound 82]
96% | 0.1 µM | 59% | 0.398 µM | – | – | Cc1cc(OC2CCN(C(C)c3ccc4c(n3)OCCO4)CC2)c(F)c(C)n1 (stereo not shown) [Compound 121]
98% | 0.01 µM | 85% | 0.0631 µM | – | – | Cc1cc(OC2CCN(C(C)c3nc4c(cc3F)OCCO4)CC2)cnc1C (stereo not shown) [Compound 166]
94% | 0.0158 µM | 100% | 0.1 µM | – | – | C[C@@H](c1nc2c(cc1F)OCCO2)N1CCC(Oc2ccc(C#N)nn2)CC1 (single isomer, unassigned) [Compound 86]
99% | 0.0631 µM | 41% | > 1 µM | – | – | CC(c1ccc2c(n1)OCCO2)N1CCC(Oc2ccc(OC(F)(F)F)cn2)CC1 (stereo not shown) [Compound 96]
– | 0.02 µM | – | 0.1 µM | 98% | 72% | COc1cc(OC2CCN(C(C)c3ccc4sc(C)nc4n3)CC2)cc(C)n1 (single isomer, unassigned) [Compound 24]
97% | 0.126 µM | 63% | ~0.501 µM | – | – | Cc1cc(COC2CCN(C(C)c3ccc4c(n3)OCCO4)CC2)cc(C)n1 (stereo not shown) [Compound 89]
101% | 0.0158 µM | 64% | 0.251 µM | – | – | Cc1cc(OC2CCN(C(C)c3cc4nc(C)sc4cc3F)CC2)nc(C)n1 (stereo not shown) [Compound 38]
95% | 0.0794 µM | 68% | 0.501 µM | – | – | CC(c1ccc2c(n1)OCCO2)N1CCC(Oc2cnc(Cl)c(F)c2)CC1 (stereo not shown) [Compound 69]
96% | 0.01 µM | 80% | 0.0794 µM | – | – | Cc1cc(OC2CCN(C(C)c3nc4c(cc3F)OCCO4)CC2)cc(C(F)F)n1 (stereo not shown) [Compound 63]
101% | 0.00794 µM | 98% | 0.0251 µM | – | – | Cc1cc(OC2CCN(C(C)c3nc4c(cc3F)CCO4)CC2)c(Cl)c(C)n1 (stereo not shown) [Compound 35]
99% | 0.02 µM | 81% | 0.288 µM | – | – | CC(c1nc2c(cc1F)OCCO2)N1CCC(Oc2ccc(C#N)cn2)CC1 (stereo not shown) [Compound 49]
58% | 6.31 µM | 2% | > 1 µM | – | – | Cc1cc(OC2CCN([C@H](C)c3ccc4c(n3)OCCO4)CC2)cc(C(F)(F)F)n1 (single isomer, unassigned) [Compound 146]
98% | 0.02 µM | 84% | 0.251 µM | – | – | Cc1cc(C(F)(F)F)cc(OC2CCN(C(C)c3nc4c(cc3F)OCCO4)CC2)n1 (stereo not shown) [Compound 48]
58% | 6.31 µM | -2% | > 1 µM | – | – | Cc1cc(OC2CCN([C@@H](C)c3nc4c(cc3F)OCCO4)CC2)cc(C)n1 (single isomer, unassigned) [Compound 149]
92% | 0.126 µM | 34% | > 1 µM | – | – | CC(c1ccc2c(n1)OCCO2)N1CCC(Oc2cnc(C3CCC3)nc2)CC1 (stereo not shown) [Compound 163]
96% | 0.0794 µM | 73% | 0.251 µM | – | – | Cc1cc(OC2CCN(C(C)c3ccc4c(n3)OCCO4)CC2)c(Cl)c(C)n1 (stereo not shown) [Compound 66]
98% | 0.158 µM | 33% | > 1 µM | – | – | Cc1cccc(OC2CCN(C(C)c3ccc4c(n3)OCCO4)CC2)n1 (stereo not shown) [Compound 46]

Emax [1] | IC50 [1] | Emax (OGA) | EC50 (OGA) | Enzymatic Emax (%) [1] | Cellular Emax (%) (OGA) | SMILES
99% | 0.0126 µM | 77% | 0.2 µM | – | – | Cc1cncc(OC2CCN(C(C)c3nc4c(cc3F)OCCO4)CC2)n1 (stereo not shown) [Compound 109]
97% | 0.02 µM | 83% | 0.158 µM | – | – | Cc1ccnc(OC2CCN(C(C)c3nc4c(cc3F)OCCO4)CC2)c1 (stereo not shown) [Compound 161]
96% | 0.631 µM | 7% | > 1 µM | – | – | COc1cc(OC2CCN([C@H](C)c3nc4nc(C)sc4cc3F)CC2)cc(C)n1 (single isomer, unassigned) [Compound 80]
93% | 1.26 µM | 22% | > 1 µM | – | – | Cc1cc(OC2CCN(C(C)c3cnc4c(c3)OCCO4)CC2)cc(C)n1 (stereo not shown) [Compound 5]
100% | 0.0631 µM | 71% | 0.398 µM | – | – | Cc1cc(OC2CCN(C(C)c3ccc4sc(C)nc4n3)CC2)cc(C)n1 (stereo not shown) [Compound 7]
101% | 0.00398 µM | 87% | 0.0174 µM | – | – | Cc1cc(OC2CCN(C(C)c3nc4c(cc3F)CCO4)CC2)cc(C)n1 (stereo not shown) [Compound 6]
96% | 0.01 µM | 82% | 0.0955 µM | – | – | Cc1ccc(OC2CCN(C(C)c3nc4c(cc3F)OCCO4)CC2)cn1 (stereo not shown) [Compound 94]
97% | 0.0631 µM | 83% | 0.126 µM | – | – | CCc1cc(OC2CCN(C(C)c3ccc4c(n3)OCCO4)CC2)cc(C)n1 (stereo not shown) [Compound 129]
102% | 0.00794 µM | 95% | 0.0501 µM | – | – | Cc1cc(OC2CCN(C(C)c3nc4c(cc3F)OCCO4)CC2)cc(C#N)n1 (stereo not shown) [Compound 128]
60% | 5.01 µM | 7% | > 1 µM | – | – | Cc1cc(OC2CCN(C(C)c3cc4c(cn3)OCCO4)CC2)cc(C)n1 (stereo not shown) [Compound 29]
102% | 0.158 µM | 77% | 0.158 µM | – | – | Cc1cc(OC2CCN(C(C)c3cnc4c(c3)OCCN4)CC2)cc(C)n1 (stereo not shown) [Compound 34]
89% | 1.26 µM | 38% | – | – | – | Cc1cc(OC2CCN(C(C)c3cnc4c(c3)OCC4)CC2)cc(C)n1 (stereo not shown) [Compound 58]
102% | 0.00501 µM | 72% | 0.0501 µM | – | – | COc1cc(OC2CCN(C(C)c3nc4c(cc3F)OCCO4)CC2)cc(C)n1 (stereo not shown) [Compound 15]
95% | 0.631 µM | 12% | > 1 µM | – | – | CC(c1ccc2c(n1)OCCO2)N1CCC(Oc2ccncc2C#N)CC1 (stereo not shown) [Compound 104]
96% | 0.0316 µM | 91% | 0.126 µM | – | – | Cc1cc(OC2CCN(C(C)c3ccc4c(n3)OCCO4)CC2)cc(C2CC2)n1 (stereo not shown) [Compound 125]
97% | 0.0158 µM | 62% | 0.355 µM | – | – | Cc1cnc(C)c(OC2CCN(C(C)c3nc4c(cc3F)OCCO4)CC2)n1 (stereo not shown) [Compound 87]
– | 3.98 µM | – | > 1 µM | 59% | −8% | COc1cc(OC2CCN(C(C)c3ccc4sc(C)nc4n3)CC2)cc(C)n1 (single isomer, unassigned) [Compound 23]
98% | 0.251 µM | 34% | > 1 µM | – | – | CC(c1ccc2c(n1)OCCO2)N1CCC(Oc2cc[nH]c(=O)c2)CC1 (stereo not shown) [Compound 93]
93% | 0.1 µM | 42% | – | – | – | Cc1ncc(OC2CCN(C(C)c3ccc4c(n3)OCCO4)CC2)cc1F (stereo not shown) [Compound 152]
